In patent US20130197043A1, “USE OF THE FETAL REPROGRAMMING OF A PPAR AGONIST” (SNU R&DB FOUNDATION, priority 2010, published 2013):

Tests used:
[1] = tested on: mice subjected to fetal reprogramming; experiment: Treadmill endurance test of mice subjected to fetal reprogramming; format: in vivo; details: for running distance / running distance increase versus control / running time / running time increase versus control: maternal 10 mg/kg, gestation and lactation; for Increase Rate (Administration Group/Control Group), Distance / Increase Rate (Administration Group/Control Group), Time: 10 mg/kg/day; for muscle colour after skin removal versus control: fetal reprogramming, 10 mg/kg/day oral
Protocol: Before the experiment, mice were exercised for 5 minutes at a speed of 7 meters/min for two days so as to be adapted to exercising equipment. On day 3, the main experiment was conducted. As for the method for experiment, the mice were made to run at a speed of 10 meter/min for 60 minutes, and after that, the speed was increased at 1 meter/min once every 15 minutes until the maximum speed reaches 15 meters/min. As for the male mice, the running time was increased by 2.9 fold ([…], P<0.0001, n=6) and the running distance was increased by 3.0 fold (9927±1168 versus 3303±394 m, P<0.0001) in the PPAR δ agonist (CMDD1111)-administered mouse group than the control mouse group.
The Experiment using pregnant C57BL/6 mice was conducted in order to verify an endurance enhancement effect by fetal reprogramming of CMDD1226. […]
The experiment for verifying the fetal reprogramming effect of GW501516 and determining the optimum administration period thereof was conducted. The experiment method was shown in FIG. 1, and the experiment was conducted with respect to three kinds of administration periods (gestation period, lactation period, and both of gestation and lactation periods). As the experiment result, the group administered with PPAR δ agonist only during the gestation period had 2.6-fold and 3.2-fold increases in the running time and the running distance, respectively, and the group administered with PPAR δ agonist only during the lactation period had 2.4-fold and 3.0-fold increases in the running time and the running distance, respectively, as compared with the control group. The group administered with PPAR δ agonist during both the gestation and lactation periods had the most obvious increase in endurance, and had 5.1-fold and 6.6-fold increases as compared with the control group (FIG. 22).
The animal test was conducted in order to verify the muscle endurance enhancement and muscular function improvement effects of the material according to the present invention. […] […] The test using a treadmill was conducted in order to confirm the effect of this muscular fiber change on muscle endurance enhancement and muscular function improvement.

[2] = tested on: mice subjected to fetal reprogramming; experiment: Morris water maze test of fetal-reprogrammed mice; format: in vivo; details: for Morris water maze test: average time required to find the platform: 8-week old, maternal 10 mg/kg/day gestation and lactation; for Morris water maze test time: mother 10 mg/kg/day oral during the fetal reprogramming period
Protocol: An animal experiment was conducted in order to verify a memory improvement effect of the mice subjected to fetal reprogramming by PPAR δ agonist. Pregnant mice were orally administered with PPAR δ agonist, CMDD1111, at a concentration of 10 mg/kg/day during the gestation and lactation periods in order to verify effects of the invented material at the brain formation stage. When the fetus became an 8-week old adult, the Morris water maze test was conducted to compare memory between the control group and the administration group. This test can check special learning and memory, and is a task that is mainly dependent on the hippocampus in the brain. As the experiment result, the average times required to find the flatform were 26 seconds and 22 seconds (male and female, respectively) for the control group and were 9 seconds and […] (male and female, respectively) for the administration group. Therefore, it was verified that the PPAR δ agonist improved memory during the fetal programming period, and this effect was maintained until the adulthood.
The animal test was conducted in order to verify the memory improvement effect of the material according to the present invention. Compounds 5 and 9, which are the developed materials, were orally administered to the mother at a concentration of 10 mg/kg/day during the fetal reprogramming period. The Morris water maze test was used to confirm the difference in brain function between the control group and the administered group.

[3] = tested on: mice with high-fat-induced diabetes; experiment: Glucose tolerance test (GTT) in mice with high-fat-induced diabetes; format: in vivo; details: 10 mg/Kg/day over 70 days; glucose 1.5 g/kg
Protocol: The glucose tolerance test (GTT) was conducted in order to verify the diabetes improvement effect of the material according to the present invention. Glucose (1.5 g/kg) was abdominally administer to mice with high-fat-induced diabetes, which was orally administered with medicine over 70 days, and then the blood glucose level change was measured for 2 hours. […] In contrast, the mouse control group administered with the vehicle […] normal blood glucose level even after 120 minutes.

hPPAR δ = target: T1, hPPAR δ (Homo sapiens, UniProt Q03181); experiment: Transfection assay in CV-1 cells, hPPAR δ; format: cell-based; details: luciferase reporter
T1 construct: expressed in transfected cells; host or cells: CV-1 cells
T1 sequence (Q03181 1-441): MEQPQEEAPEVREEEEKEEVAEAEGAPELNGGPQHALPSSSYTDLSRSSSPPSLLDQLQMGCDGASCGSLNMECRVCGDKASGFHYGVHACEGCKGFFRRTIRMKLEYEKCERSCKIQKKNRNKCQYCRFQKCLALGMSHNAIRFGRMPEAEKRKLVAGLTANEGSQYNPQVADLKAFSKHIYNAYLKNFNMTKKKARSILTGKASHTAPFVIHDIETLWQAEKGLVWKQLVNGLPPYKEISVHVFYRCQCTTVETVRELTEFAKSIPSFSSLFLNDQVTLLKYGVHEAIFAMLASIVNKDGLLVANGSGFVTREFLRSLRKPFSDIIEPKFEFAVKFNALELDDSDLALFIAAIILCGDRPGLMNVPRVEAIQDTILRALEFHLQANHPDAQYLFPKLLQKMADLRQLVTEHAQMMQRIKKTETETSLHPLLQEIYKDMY
Protocol: This assay was conducted by using CV-1 cells. The cells were cultured on a 96-well plate with a DMEM medium containing 10% FBS, DBS (delipidated), and 1% penicillin/streptomycin in 37° C. of an incubator 5% of carbon dioxide. Test was conducted in four stages of cell inoculation, transfection, treatment with the developed material, and result confirmation. The CV-1 cells were inoculated on the 96-well plate at a cell density at 5,000 cells/well, and after 24 hours, transfection was performed. PPARs plasmid DNA, reporter DNA, and β-galactosidase DNA were mixed with a transfection reagent, and then used to treat the cells. The developed material was dissolved in dimethylsulfoxide (DMSO), and then was used to treat the cells by using media at various concentrations. After 24 hours of culturing in an incubator, the cells were lysed with a lysis buffer and luciferase activity and β-galactosidase activity were measured using a luminometer and a microplate reader. The measured luciferase value was calibrated with the β-galactosidase value, and this value was depicted on a graph and EC50 was determined.

10-week old C57BL/6 mice = experiment: Treadmill endurance test of adult mice exercised while administered; format: in vivo; details: 10 mg/kg/day oral with exercise over 30 days
Protocol: In addition, it was verified that the developed material was effective in enhancing muscle endurance and improving muscular function. 10-week old C57BL/6 mice were exercised while being orally administered with the developed material at a concentration of 10 mg/kg/day. The mice were exercised using a treadmill for 30 minutes once each day over 30 days. The mice were exercised under exercise conditions of 2 meter/min for 5 minutes, 5 meters/min for 5 minutes, 8 meters/min for 5 minutes, and 20 meters/min for 5 minutes, respectively. By the end of the test, muscle endurance enhancement and muscular function improvement effects were tested by using a treadmill.

| SMILES | Increase Rate (Administration Group/Control Group), Distance ([1]; Gestation + Lactation Periods) [fold] | Increase Rate (Administration Group/Control Group), Time ([1]; Gestation + Lactation Periods) [fold] | Increase Rate (Administration Group/Control Group), Distance ([1]; Gestation Period) [fold] | Increase Rate (Administration Group/Control Group), Time ([1]; Gestation Period) [fold] | Increase Rate (Administration Group/Control Group), Distance ([1]; Lactation Period) [fold] | Increase Rate (Administration Group/Control Group), Time ([1]; Lactation Period) [fold] | muscle colour after skin removal versus control [1] | Morris water maze test time [2] [s] | blood glucose level change between 20 and 40 minutes versus control [3] | complete glucose clearance after [3] [min] | EC50 (hPPAR δ) [nM] | increase in the running distance versus control (10-week old C57BL/6 mice) [fold] | increase in the running time versus control (10-week old C57BL/6 mice) [fold] | also measured |
| --- | --- | --- | --- | --- | --- | --- | --- | --- | --- | --- | --- | --- | --- | --- |
| Cc1cc(SC(Cc2ccccc2)c2sc(-c3ccc(C(F)(F)F)cc3)nc2C)ccc1OCC(=O)O (stereo not drawn) [CMDD1111] | – | – | – | – | – | – | – | – | – | – | – | – | – | running distance ([1]; female mice): 11194±261 m; running distance increase versus control ([1]; female mice): 2.1 fold; running time ([1]; female mice): 761 ± 17 min; running time increase versus control ([1]; female mice): 2.0 fold; running distance ([1]; male mice): 9927±1168 m; running distance increase versus control ([1]; male mice): 3.0 fold; running time ([1]; male mice): 677 ± 78 min; running time increase versus control ([1]; male mice): 2.9 fold; Morris water maze test: average time required to find the platform ([2]; female): 6 s; Morris water maze test: average time required to find the platform ([2]; male): 9 s |
| Cc1cc(SC(Cc2ccc(-c3ccccc3)cc2)c2sc(-c3ccc(C(F)(F)F)cc3)nc2C)ccc1OCC(=O)O (stereo not drawn) [Compound 5] | 3.9 | 3.6 | 2.5 | 2.4 | 2.2 | 2.1 | redder than the control group | 8.2 | rapid decrease | 100 | 3.3 | 1.8 | 1.7 | – |
| Cc1cc(SC(Cc2ccc(-c3ccc(F)cc3)cc2)c2sc(-c3ccc(C(F)(F)F)cc3)nc2C)ccc1OCC(=O)O (stereo not drawn) [Compound 9] | 3.0 | 2.8 | 1.9 | 1.9 | 1.5 | 1.5 | redder than the control group | 9.7 | rapid decrease | 100 | 3.9 | 1.5 | 1.5 | – |
